Legend:
[1] = tested on: Unpolarized Th0 (from naive CD4 T cells of C57BL/6 mice); assay: Unpolarized Th0 cells cultured with DDA, flow cytometry; assay type: cell-based, mouse
Experimental: FIGS. 3A-D. Unpolarized Th0 (prepared from naive CD4 T cells isolated from the spleen of C57BL/6 mice were cultivated in presence of anti-CD3, anti-CD28 and recombinant IL-2 as indicated in the “Materials and methods” section”) and with gradual concentration of DDA added at day 0 of culture (condition #1) or Day 4 of culture (condition #2). At the end, for each condition, the percentage of Th1 (CD4+Tbet+IFNg+) (A,B) and Treg CD4+Foxp3+IL10+ (C,D) was measured by flow cytometry.
Immune cell culture. Isolated CD4+ or CD8+ T cells were cultures in 96-well flat bottom plates (0.25×10^6 cells per wells) in 0.25 ml of complete RPMI 1640 media (10% FBS, 1% penicillin/Streptomycin, 1% sodium pyruvate, 1% HEPES and 50 μM b-mercaptoethanol) in the presence of 10 μg/ml plate-bound anti-mouse CD3 (2C11) and 2 μg/ml soluble α-CD28 (LEAF) in addition to 50 ng/ml of recombinant IL-2 (e-bioscience). DDA (synthesized by Affichem) diluted in the solvent vehicle was added at increasing concentration (0-1-10-100 and 1000 nM). […] After 5 days of culture, cells were collected and analyzed by flow cytometry. To investigate the impact of DDA on polarization of CD4 or CD8 naive T cells, DDA or the solvent vehicle was added at the beginning of culture at Day 0 or at Day 4 and cells was analyzed at day 5 by flow cytometry.

E0771 tumors = assay: Immune cells infiltrated into E0771 tumors (wild type, sh control, sh LXR) after DDA, flow cytometry; assay type: in vivo, mouse
Source text: FIGS. 14A-D. […] mice were grafted subcutaneously with 300 000 E0771 tumor cells knocked down for the LXR (E0771 sh LXR) or with control cells (E0771 Sh control). […] 15 days post DDA treatment, the tumor cells were collected to assess by flow cytometry the CD4 Th1 cells (CD4+ Tbet+), CD4 T regulatory (Treg: CD4+ Foxp3+), CD8 T cells cytotoxic (CTL: CD8+ granzyme +)) or not (non CTL: CD8+ Granzyme −), macrophage M1 (F4/80+ CD206− CD86+) and M2 (F4/80+ CD206+ CD86−), dendritic cells CD11c+, CD11c+CD8α+ and myeloid derived suppressive cells (MDSC: CD11b+CD11clow, LY6C+ly6Gint) infiltrated into the tumors. To observe the cytotoxic CD8 T cells, the tumor suspension was prealably stimulated 2 h in vitro with a cocktail of PMA (50 ng/ml), ionomycine (500 ng/ml) and golgistop (concentration from manufacture BD Pharmagen), then the cells were stained with specific antibodies. The bars graphs represent the ratio between (A) Th1 and Treg, (B) CTL and non CTL, (C) M1 and M2 and (D) Alls DCs (CD11c+ and CD11c+ CD8α+) and MDSC infiltrated inside the tumors: E0771 sh control or E0771 Sh LXR (knocked down for LXRβ) from mice treated or not with DDA at 0.37 ug/kg. In cells expressing the LXRβ (E0771 shcontrol cells), DDA increases the infiltration of activated immune cells (Th1, CTL, macrophages M1 and DC) and decreases the infiltration of immunosuppressives cells (Treg, non CTL, M2 and MDSC).
FIGS. 15A-D. DDA treatment decreases the percentage of T regulatory CD4 T cells and increases the activated CD4+ and CD8+ T cells inside tumors. […] When tumors were palpable (50 mm3), the animals were treated with the vehicle (empty symbol) or s.c. 0.37 μg/kg of DDA (full symbol) every 2 days, once a day. […] post treatment, the animals were sacrified to collect the tumors. The tumors were dissociated by using gentlemac technology (Miltenyi) and then the suspension of tumor cells were stimulated with 50 ng/ml of PMA (Sigma), 500 ng/ml Ionomycin (Sigma) and 1/1000 of golgi stop (ebiosicence) during 3 h at 37° C. Tumor infiltrated Lymphocytes (TIL) isolated from E0711 tumors were stained with antibodies against CD45, CD8, CD4, PD-1, Foxp3, T-bet, IFN-g, Granzym B, PD-1 as well as live/dead stain. By gating on CD45+CD4+ (A-B) or CD45+CD8+ T cells populations (C-D), the tumor-infiltrating (A) T regulatory cells (Treg; Foxp3+), (B) effector CD4+ cells (Th1; T-bet+) and (C) cytotoxic CD8 T cells (CTL; IFN-γ+Granzym B+) were analyzed by flow cytometry. The vehicle condition is normalized at 1 and the graphs are representative of three independent experiments. (D). The graph represents the percentage of PD-1 negative CD8+ cells inside tumors of mice treated with vehicle or DDA and is representative of three independent experiments.
FIGS. 17A-D. The silencing of LXRβ in tumor affects the effects of DDA on T regulatory and cytotoxic CD8+ T cells population infiltrated inside tumor. Animals grafted with E0711 tumors expressing the LXRβ (square symbol) or knockdown for the LXRβ expression (circle symbol) treated in FIG. 2 were sacrified to collect tumors, 15 days post treatment with the vehicle (empty symbol) or 0.37 μg/kg of DDA (full symbol). The tumor were dissociated by using gentlemac technology (Miltenyi), and the suspension of tumor cells obtained were stimulated with 50 ng/ml of PMA (Sigma), 500 ng/ml Ionomycin (Sigma) and 1/1000 of golgi stop (ebiosicence) during 3 h at 370 to analyze by flow cytometry the phenotype of tumor-infiltrated lymphocytes. By gating on CD45+CD4+ (A-B) or CD45+CD8+ T cells populations (C-D) as well as live/dead stain, the tumor-infiltrating (A) T regulatory cells (Treg; Foxp3+), (B) effector CD4+ cells (Th1; T-bet+) and (C) cytotoxic CD8 T cells (CTL; IFN-γ+Granzym B+) were determined.

[2] = E0771 shcontrol, 0.37 μg/kg DDA every 2 days, 15 days (FIG. 14)
[3] = decrease expression of LXRB into the tumors (FIG. 17)
[4] = tumors expressing LXRβ, 0.37 μg/kg DDA, 15 days (FIG. 17)
[5] = wild type E0771, s.c. 0.37 μg/kg DDA every 2 days (FIG. 15)

In the case of `CC(C)CCCC(C)[C@H]1CCC2C3C[C@@H](NCCc4cnc[nH]4)[C@@]4(O)C[C@@H](O)CC[C@]4(C)C3CC[C@@]21C` (some centres unmarked) [DDA, 5a-hydroxy-6b-[2-(1H-imidazol-4-yl)ethylamino]cholestan-3b-ol], the “Th0 into Th1 differentiation” value ([1]; unpolarized Th0, DDA at day 0 or day 4 (FIG. 3)) was “does not activated”, the “differentiation of Th0 into Treg phenotype” value ([1]; unpolarized Th0, DDA at day 0 or day 4, more impressive at day 4 (FIG. 3)) was “inhibits” and the “number of macrophages M1 infiltrated into the tumors” value (E0771 tumors; 0.37 μg/kg DDA (FIG. 18)) was “increases”. The “ratio of dendritic cells CD11+ versus MDSC” value (E0771 tumors; 0.37 μg/kg DDA (FIG. 19)) was “increases”, the “effect of DDA on immune cell infiltration” value (E0771 tumors; E0771 shLXR cells (FIG. 14)) was “significantly decreased” and the “infiltration of activated immune cells (Th1, CTL, macrophages M1 and DC)” value (E0771 tumors; [2]) was “increases”. For the same compound, the “infiltration of immunosuppressives cells (Treg, non CTL, M2 and MDSC)” value (E0771 tumors; [2]) was “decreases”, the “effect of DDA on T regulatory cells infiltrated into the tumors” value (E0771 tumors; [3]) was “abolished” and the “effect of DDA on activated cytotoxic CD8+ T cells infiltrated into the tumors” value (E0771 tumors; [3]) was “abolished”. The “influence of decreased LXRB expression on DDA effect on effector Th1CD4+” value (E0771 tumors; [3]) was “had no effect”, the “LXRβ dependence of effect on macrophages M2” value (E0771 tumors; shLXRβ vs LXRβ expressing tumors (FIG. 18)) was “independent of the LXRβ” and the “number of T regulatory cells infiltrated into the tumors” value (E0771 tumors; [4]) was “decreases”. The “number of activated cytotoxic CD8+ T cells infiltrated into the tumors” value (E0771 tumors; [4]) was “increases”, the “number of effector Th1CD4+ cells infiltrated into the tumors” value (E0771 tumors; [4]) was “increases” and the “activated CD4+ T cells inside tumors” value (E0771 tumors; [5]) was “increases”. For the same compound, the “activated CD8+ T cells inside tumors” value (E0771 tumors; [5]) was “increases” and the “number of T regulatory CD4 T cells inside tumors” value (E0771 tumors; [5]) was “decreases”.
